Measurements published in US20110195427A1, “SYSTEMS AND METHODS FOR DETECTING PREGNANCY” (priority 2010, published 2011).
Several values for one entry are separate records, joined by “and”; a condition that tells them apart may be missing. Equal entries are not always repeated. Where two headings read alike, the source gives them in different places.

T1: α-amylase (Homo sapiens, UniProt P0DUB6)
T1 sequence (P0DUB6 16-511): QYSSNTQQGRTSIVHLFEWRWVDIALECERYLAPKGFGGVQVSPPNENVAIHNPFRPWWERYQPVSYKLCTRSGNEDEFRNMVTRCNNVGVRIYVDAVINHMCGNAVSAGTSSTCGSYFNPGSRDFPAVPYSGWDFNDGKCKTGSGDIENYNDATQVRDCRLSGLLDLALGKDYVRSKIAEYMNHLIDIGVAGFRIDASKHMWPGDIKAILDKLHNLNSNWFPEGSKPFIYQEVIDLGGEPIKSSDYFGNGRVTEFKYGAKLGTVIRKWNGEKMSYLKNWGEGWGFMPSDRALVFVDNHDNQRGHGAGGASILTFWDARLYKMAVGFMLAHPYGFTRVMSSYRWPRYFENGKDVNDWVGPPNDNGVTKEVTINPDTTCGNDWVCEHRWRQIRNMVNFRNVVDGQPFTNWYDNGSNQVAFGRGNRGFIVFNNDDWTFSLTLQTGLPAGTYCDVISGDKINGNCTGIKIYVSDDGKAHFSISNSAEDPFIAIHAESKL

B1: Soybeans: primary soybean protease inhibitor, 20.7-22.3 kDa (protein, UniProt P01070 25-205, looked up)
Trypsin inhibitor A: DFVLDNEGNPLENGGTYYILSDITAFGGIRAAPTGNERCPLTVVQSRNELDKGIGTIISSPYRIRFIAEGHPLSLKFDSFAVIMLCVGIPTEWSVVEDLPEGPAVKIGENKDAMDGWFRLERVSDDEFNNYKLVFCPQQAEDDKCGDIGISIDHDDGTRRLVVSKNKPLVVQFQKLDKESL

What was measured:
[1] = system: peroxidase; assay: Peroxidase assay in saliva (Amplex Red); assay type: biochemical
Protocol: To determine the effect of various GRAS compounds as inhibitors of peroxidase activity, a standard assay using Amplex® Red (Life Technologies), which releases a fluorescent oxidation product.
The test compounds, such as GRAS materials or cocktails of same, were prepared at a concentration of 500 ppm in distilled water. For the assay, 50 μl samples of test compounds were mixed with 20-30 μl of saliva (either “pooled” or “unpooled”) prior to the addition of Amplex® Red. […] Reactions were allowed to run for 30 minutes during these assays.

[2] = biological target: T1, α-amylase; assay: α-Amylase inhibition saliva screening (chromogenic substrate, 405 nm); assay type: biochemical; settings: for Ave (absorbance at 405 nm): average of 4 readings; for absorbance at 405 nm, single reading: test compound prepared at 5,000 ppm, 37° C.
Source text: Further details of these five compounds may also be seen in Table 4.

[3] = system: protease; settings: natural protease inhibitors; cited from earlier work
[4] = 500 ppm, pooled and unpooled saliva controls, 30 minutes, FIGS. 26-29

Molecule	peroxidase inhibition [1, 4]	Ave (absorbance at 405 nm) ([2]; Time 0 min)	Ave (absorbance at 405 nm) ([2]; Time 5 min)	Ave (absorbance at 405 nm) ([2]; Time 15 min)	also measured
O=C(O)c1ccccc1 [CDI #16, Benzoic acid]					peroxidase inhibition [1]: showed significant peroxidase inhibition capabilities
Cn1c(=O)c2c(ncn2C)n(C)c1=O [CDI #33, Caffeine]	showed significant peroxidase inhibition capabilities				
COc1ccc(O)c(C(C)(C)C)c1 [CDI-039, 3-tert--butyl-hydroxyanisole]	showed significant peroxidase inhibition capabilities				
Aluminum potassium sulfate dodecahydrate [CDI-42]	showed significant peroxidase inhibition capabilities	0.92	1.85	2.29	absorbance at 405 nm, single reading ([2]; Time 0 min): 0.80 and 1.13 and 0.90 and 0.84; absorbance at 405 nm, single reading ([2]; Time 5 min): 1.65 and 2.15 and 1.80 and 1.81; absorbance at 405 nm, single reading ([2]; Time 15 min): 2.37 and 2.38 and 2.25 and 2.17
Aluminum sulfate hydrate [CDI-34]		0.40	0.50	0.56	absorbance at 405 nm, single reading ([2]; Time 0 min, sulfate hydrate): 0.40 and 0.36 and 0.45; absorbance at 405 nm, single reading ([2]; Time 5 min, sulfate hydrate): 0.49 and 0.50 and 0.52; absorbance at 405 nm, single reading ([2]; Time 15 min, sulfate hydrate): 0.53 and 0.61 and 0.54 and 0.56
B1					Inhibitory power [3]: 1.2 times times weight
